Assay results taken from US20210009564A1, “CALPAIN MODULATORS AND THERAPEUTIC USES THEREOF” (BLADE THERAPERTICS, INC., priority 2018, published 2021).

Experiments:
[1] = system: Calpain activity in SH-SY5Y cells; assay: SH-SY5Y spectrin breakdown product (SBDP-150) western blot assay; assay type: cell-based; conditions: Homo sapiens; SH-SY5Y cells, 25 uM A23187, SBDP-150 western blot; read-out: SH-SY5Y Spectrin IC50
[2] = molecular target: T1, Human Calpain 9/NS1 (Homo sapiens, UniProt O14815); assay: Calpain inhibition, continuous fluorescence (FRET substrate) assay, calpain 9; assay type: biochemical; conditions: SensoLyte 520 FRET substrate, 25C
T1 sequence (O14815 1-690): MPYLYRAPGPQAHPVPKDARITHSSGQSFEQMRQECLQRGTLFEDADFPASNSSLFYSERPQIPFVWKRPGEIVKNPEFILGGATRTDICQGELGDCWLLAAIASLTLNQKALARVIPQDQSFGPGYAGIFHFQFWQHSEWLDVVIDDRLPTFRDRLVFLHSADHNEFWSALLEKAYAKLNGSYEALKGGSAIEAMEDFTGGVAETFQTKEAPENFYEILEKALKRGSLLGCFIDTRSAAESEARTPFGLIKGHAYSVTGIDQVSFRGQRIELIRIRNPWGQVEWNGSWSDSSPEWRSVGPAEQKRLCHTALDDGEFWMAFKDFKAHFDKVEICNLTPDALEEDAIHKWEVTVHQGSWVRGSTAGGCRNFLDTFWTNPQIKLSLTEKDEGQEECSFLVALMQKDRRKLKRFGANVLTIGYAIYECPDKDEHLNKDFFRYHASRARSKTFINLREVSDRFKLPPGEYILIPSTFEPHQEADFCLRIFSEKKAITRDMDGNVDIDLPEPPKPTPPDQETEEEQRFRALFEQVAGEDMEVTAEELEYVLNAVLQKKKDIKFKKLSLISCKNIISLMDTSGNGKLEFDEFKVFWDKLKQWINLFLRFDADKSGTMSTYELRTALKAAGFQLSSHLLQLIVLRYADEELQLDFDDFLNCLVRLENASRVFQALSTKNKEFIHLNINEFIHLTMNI
T1 sequence (P04632 1-268 partner): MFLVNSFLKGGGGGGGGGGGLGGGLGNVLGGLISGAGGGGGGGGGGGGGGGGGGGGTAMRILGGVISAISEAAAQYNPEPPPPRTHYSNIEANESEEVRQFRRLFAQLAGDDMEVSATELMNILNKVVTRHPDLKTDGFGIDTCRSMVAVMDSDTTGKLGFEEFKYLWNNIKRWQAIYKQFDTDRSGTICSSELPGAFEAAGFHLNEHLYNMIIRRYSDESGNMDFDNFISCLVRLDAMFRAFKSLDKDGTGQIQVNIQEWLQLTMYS
Procedure: (§1) Calpain 1, 2, and 9 activity and inhibition thereof was assessed by means of a continuous fluorescence assay. The SensoLyte 520 Calpain substrate (Anaspec Inc) was optimized for detecting calpain activity. This substrate contains an internally quenched 5-FAM/QXLTM 520 FRET pair. Calpains 1, 2, and 9 cleave the FRET substrate into two separate fragments resulting in an increase of 5-FAM fluorescence that is proportional to calpain activity Assays were typically setup in black 384-well plates using automated liquid handling as follows. Calpain assay base buffer typically contains 50 mM Tris, pH 7.5, 100 mM NaCl and 1 mM DTT. Inhibitors were serially diluted in DMSO and used to setup 2× mixtures with calpains in the aforementioned buffer. After incubation at ambient temperature (25C), the reaction was initiated by adding a 2× mix of the fluorescent peptide substrate and CaCl2) (required for in-situ calpain activation) in the same buffer. Reaction progress curve data were typically collected for 10 min using excitation/emission wavelengths of 490 nm/520 nm on SpectraMax i3× or the FLIPR-Tetra plate readers (Molecular Devices Inc). Reaction rates were calculated from progress curve slopes typically over 1-5 min. Dose response curves (rate vs. log inhibitor concentration) were typically fit to a 4-parameter logistic function to extract IC50 values.

[3] = molecular target: T2, Human Calpain 2/NS1 (Homo sapiens, UniProt P17655); assay: Calpain inhibition, continuous fluorescence (FRET substrate) assay, calpain 2; assay type: biochemical; conditions: SensoLyte 520 FRET substrate, 25C
T2 sequence (P17655 1-700): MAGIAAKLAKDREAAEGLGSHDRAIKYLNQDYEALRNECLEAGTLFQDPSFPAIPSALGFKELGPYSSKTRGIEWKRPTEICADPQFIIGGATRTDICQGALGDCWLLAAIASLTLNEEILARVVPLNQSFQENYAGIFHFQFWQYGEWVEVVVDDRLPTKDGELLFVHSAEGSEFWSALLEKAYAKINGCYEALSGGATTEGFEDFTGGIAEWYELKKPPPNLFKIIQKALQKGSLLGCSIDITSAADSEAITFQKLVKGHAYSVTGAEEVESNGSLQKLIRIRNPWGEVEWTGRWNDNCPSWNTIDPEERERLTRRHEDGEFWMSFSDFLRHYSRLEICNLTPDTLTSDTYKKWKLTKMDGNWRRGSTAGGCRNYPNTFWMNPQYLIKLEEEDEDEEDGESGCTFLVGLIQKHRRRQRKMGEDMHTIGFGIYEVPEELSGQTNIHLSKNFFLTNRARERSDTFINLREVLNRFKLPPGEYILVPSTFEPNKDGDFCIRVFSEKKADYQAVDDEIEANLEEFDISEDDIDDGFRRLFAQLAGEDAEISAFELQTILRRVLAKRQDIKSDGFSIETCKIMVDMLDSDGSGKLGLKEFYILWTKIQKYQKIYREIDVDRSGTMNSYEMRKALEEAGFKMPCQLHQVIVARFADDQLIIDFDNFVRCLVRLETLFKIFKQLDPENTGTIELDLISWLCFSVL
T2 sequence (P04632 1-268 partner): T1 sequence (P04632 1-268 partner)
Procedure: as §1

[4] = molecular target: T3, Human Calpain 1/NS1 (Homo sapiens, UniProt P07384); assay: Calpain inhibition, continuous fluorescence (FRET substrate) assay, calpain 1; assay type: biochemical; conditions: SensoLyte 520 FRET substrate, 25C
T3 sequence (P07384 1-714): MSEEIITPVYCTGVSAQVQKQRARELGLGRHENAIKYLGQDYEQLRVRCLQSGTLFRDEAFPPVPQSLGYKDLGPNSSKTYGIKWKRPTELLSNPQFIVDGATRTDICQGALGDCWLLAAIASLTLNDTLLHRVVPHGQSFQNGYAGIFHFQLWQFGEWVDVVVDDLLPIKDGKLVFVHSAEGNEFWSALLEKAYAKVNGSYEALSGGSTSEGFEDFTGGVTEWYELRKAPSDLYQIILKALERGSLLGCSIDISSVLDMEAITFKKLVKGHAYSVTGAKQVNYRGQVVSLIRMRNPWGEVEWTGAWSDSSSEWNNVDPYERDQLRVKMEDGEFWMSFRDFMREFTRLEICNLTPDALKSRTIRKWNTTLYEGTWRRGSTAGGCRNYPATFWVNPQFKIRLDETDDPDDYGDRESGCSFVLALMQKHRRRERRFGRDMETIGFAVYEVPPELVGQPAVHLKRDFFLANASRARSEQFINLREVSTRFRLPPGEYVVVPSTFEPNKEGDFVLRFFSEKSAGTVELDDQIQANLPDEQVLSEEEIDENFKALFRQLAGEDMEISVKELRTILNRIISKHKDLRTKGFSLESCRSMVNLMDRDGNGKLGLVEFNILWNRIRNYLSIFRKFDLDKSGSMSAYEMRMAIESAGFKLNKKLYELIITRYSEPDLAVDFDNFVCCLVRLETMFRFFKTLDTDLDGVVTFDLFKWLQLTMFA
T3 sequence (P04632 1-268 partner): T1 sequence (P04632 1-268 partner)
Procedure: as §1

[5] = system: Calpain activity in SH-SY5Y cells; assay: SH-SY5Y Suc-LLVY-AMC fluorescence assay; assay type: cell-based; conditions: Homo sapiens; SH-SY5Y cells, 100 uM Suc-LLVY-AMC; read-out: SH-SY5Y + AMC IC50

SMILES	IC50 [1]	IC50 [2]	IC50 [3]	IC50 [4]	IC50 [5]
NC(=O)C(=O)C(Cc1ccccc1)NC(=O)c1cn(C(F)F)nc1-c1cnc2ccccc2n1 (stereo not drawn) [Compound 25, N-(4-AMINO-3,4-DIOXO-1-PHENYLBUTAN-2-YL)-1-(DIFLUOROMETHYL)-3-(QUINOXALIN-2-YL)-1H-PYRAZOLE-4-CARBOXAMIDE]	10 to 25 µM	< 3 µM	< 3 µM	< 3 µM	–
Cn1cc(C(=O)NC(Cc2ccccc2)C(=O)C(N)=O)c(-c2cccc3cnn(C)c23)n1 (stereo not drawn) [Compound 33, N-(4-AMINO-3,4-DIOXO-1-PHENYLBUTAN-2-YL)-1-METHYL-3-(1-METHYL-1H-INDAZOL-7-YL)-1H-PYRAZOLE-4-CARBOXAMIDE]	> 25 µM	< 3 µM	< 3 µM	3 to 10 µM	–
Cc1nc(-c2ccccc2F)c(C(=O)NC(Cc2ccc(F)cc2)C(=O)C(N)=O)o1 (stereo not drawn) [Compound 73, N-(4-AMINO-1-(4-FLUOROPHENYL)-3,4-DIOXOBUTAN-2-YL)-4-(2-FLUOROPHENYL)-2-METHYLOXAZOLE-5-CARBOXAMIDE]	< 10 µM	< 3 µM	< 3 µM	< 3 µM	–
COC(=O)C(=O)C(Cc1ccccc1)NC(=O)c1cn(C)nc1-c1cccc(F)c1 (stereo not drawn) [Compound 74, METHYL-3-(3-(3-FLUOROPHENYL)-1-METHYL-1H-PYRAZOLE-4-CARBOXAMIDO)-2-OXO-4-PHENYLBUTANOATE]	> 25 µM	< 3 µM	< 3 µM	< 3 µM	–
COc1cccc(-c2nc(C)oc2C(=O)NC(Cc2ccccc2)C(=O)C(N)=O)c1F (stereo not drawn) [Compound 75, N-(4-AMINO-3,4-DIOXO-1-PHENYLBUTAN-2-YL)-4-(2-FLUORO-3-METHOXYPHENYL)-2-METHYLOXAZOLE-5-CARBOXAMIDE]	10 to 25 µM	< 3 µM	< 3 µM	< 3 µM	–
Cc1nc(-c2c(F)cccc2F)c(C(=O)NC(Cc2ccccc2)C(=O)C(N)=O)o1 (stereo not drawn) [Compound 76, N-(4-AMINO-3,4-DIOXO-1-PHENYLBUTAN-2-YL)-4-(2,6-DIFLUOROPHENYL)-2-METHYLOXAZOLE-5-CARBOXAMIDE]	10 to 25 µM	< 3 µM	< 3 µM	< 3 µM	–
O=C(O)C(=O)C(Cc1ccccc1)NC(=O)c1nsnc1-c1cccc2oc(=O)[nH]c12 (stereo not drawn) [Compound 106, 2-OXO-3-4-(2-OXO-2,3-DIHYDROBENZO[D]OXAZOL-4-YL)-1,2,5-THIADIAZOLE-3-CARBOXAMIDO)-4-PHENYLBUTANOIC ACID]	–	< 3 µM	< 3 µM	< 3 µM	10 to 25 µM
O=C(O)C(=O)C(Cc1ccccc1)NC(=O)c1nsnc1-c1cccc2c1OC(F)(F)O2 (stereo not drawn) [Compound 107, 3-(4-(2,2-DIFLUOROBENZO[D][1,3]DIOXOL-4-YL)-1,2,5-THIADIAZOLE-3-CARBOXAMIDO)-2-OXO-4-PHENYLBUTANOIC ACID]	–	< 3 µM	< 3 µM	< 3 µM	10 to 25 µM
Cc1nc(-c2c(F)cccc2F)c(C(=O)NC(Cc2ccccc2)C(=O)C(=O)O)o1 (stereo not drawn) [Compound 108, 3-(4-(2,6-DIFLUOROPHENYL)-2-METHYLOXAZOLE-5-CARBOXAMIDO)-2-OXO-4-PHENYLBUTANOIC ACID]	–	< 3 µM	< 3 µM	< 3 µM	< 10 µM
CN(C)NC(=O)C(=O)C(Cc1ccccc1)NC(=O)c1nsnc1-c1ccccc1 (stereo not drawn) [Compound 109, N-(4-(2,2-DIMETHYLHYDRAZINEYL)-3,4-DIOXO-1-PHENYLBUTAN-2-YL)-4-PHENYL-1,2,5-THIADIAZOLE-3-CARBOXAMIDE]	–	< 3 µM	< 3 µM	< 3 µM	10 to 25 µM
O=C(NC(Cc1ccccc1)C(=O)CO)c1nsnc1-c1ccccc1 (stereo not drawn) [Compound 111, N-(4-HYDROXY-3-OXO-1-PHENYLBUTAN-2-YL)-4-PHENYL-1,2,5-THIADIAZOLE-3-CARBOXAMIDE]	–	> 10 µM	3 to 10 µM	3 to 10 µM	> 25 µM
Cn1cc(C(=O)NC(Cc2ccccc2)C(=O)C(N)=O)c(-c2cccc3c2OC(C)(C)O3)n1 (stereo not drawn) [Compound 112, N-(4-AMINO-3,4-DIOXO-1-PHENYLBUTAN-2-YL)-3-(2,2-DIMETHYLBENZO[D][1,3]DIOXOL-4-YL)-1-METHYL-1H-PYRAZOLE-4-CARBOXAMIDE]	–	< 3 µM	< 3 µM	< 3 µM	> 25 µM
CONC(=O)C(=O)C(Cc1ccccc1)NC(=O)c1cccnc1-n1ccc(-c2ccccc2)n1 (stereo not drawn) [Compound 113, N-(4-(METHOXYAMINO)-3,4-DIOXO-1-PHENYLBUTAN-2-YL)-2-(3-PHENYL-1H-PYRAZOL-1-YL)NICOTINAMIDE]	–	< 3 µM	< 3 µM	< 3 µM	10 to 25 µM
CC(C)n1c(=O)oc2c(-c3nn(C)cc3C(=O)NC(Cc3ccccc3)C(=O)C(N)=O)cccc21 (stereo not drawn) [Compound 114, N-(4-AMINO-3,4-DIOXO-1-PHENYLBUTAN-2-YL)-3-(3-ISOPROPYL-2-OXO-2,3-DIHYDROBENZO[D]OXAZOL-7-YL)-1-METHYL-1H-PYRAZOLE-4-CARBOXAMIDE]	–	< 3 µM	< 3 µM	< 3 µM	> 25 µM
NC(=O)C(=O)C(Cc1ccccc1)NC(=O)c1nsnc1-c1cccc2c1CC(=O)N2 (stereo not drawn) [Compound 115, N-(4-AMINO-3,4-DIOXO-1-PHENYLBUTAN-2-YL)-4-(2-OXOINDOLIN-4-YL)-1,2,5-THIADIAZOLE-3-CARBOXAMIDE]	–	< 3 µM	< 3 µM	< 3 µM	< 10 µM
